Patent US8067394B2, “Synthesis and biological activities of new tricyclic-bis-enones (TBEs)” (Trustees of Dartmouth College, priority 2006, dated 2011)
Entries after “also recorded” stand apart in the source; their conditions may differ.

Columns and labels:
[1] = system: NO production in RAW cells; test: Inhibition of NO production in RAW cells stimulated with interferon-γ; assay type: cell-based, mouse
[2] = system: RMPI 8226 human myeloma cells; test: Proliferation of RMPI 8226 human myeloma cells (Coulter counter); assay type: cell-based; conditions: FIG. 1; treated 3-4 days
Experimental: (§1) FIG. 1. TBEs inhibit proliferation of RMPI 8226 human myeloma cells and U937 human leukemia cells. Cells were treated with TBEs and triterpenoids for 3-4 days and counted by Coulter counter. […] CDDO is presently in clinical trial for treatment of acute myelogenous leukemia. TP-235 is the imidazolide derivative of CDDO.
(§2) Cells were treated with triterpenoids and TBEs for 3-4 days and counted by Coulter counter. […] CDDO is presently in clinical trial for treatment of acute myelogenous leukemia. TP-235 is the imidazolide derivative of CDDO.

[3] = system: U937 human leukemia cells; test: Proliferation of U937 human leukemia cells (Coulter counter); assay type: cell-based; conditions: FIG. 1; treated 3-4 days
Experimental: as §1, §2

heme oxygenase-1 [4] = test: Induction of heme oxygenase-1 in U937 cells (Western blot); assay type: cell-based, human; conditions: FIG. 2; 0.1-1 μM, 7 hours
Experimental: FIG. 2. […] Cells were incubated with TBEs and triterpenoids (0.1-1 μM) for 7 hours. Total cell lysates were analyzed by SDS-PAGE, probed with an HO-1 antibody, and developed by ECL. […] None of the other TBEs that were tested provided significant induction of heme oxygenase.
Cells were incubated with triterpenoids or TBEs (0.1-1 μM) for 7 hours. Total cell lysates were analyzed by SDS-PAGE, probed with an HO-1 antibody, and developed by ECL. […] None of the other TBEs that were tested provided significant induction of heme oxygenase.

heme oxygenase-1 [5] = test: Induction of heme oxygenase-1 in liver of CD-1 mice after gavage; assay type: in vivo
Experimental: FIG. 3. […] CD-1 mice (2 per group) were gavaged with TBEs or CDDO-Im in DMSO. After 6 h, livers were harvested and homogenized. Lysates were separated by SDS-PAGE, probed with HO-1 antibodies, and developed by ECL.
FIG. 11. […] Male CD-1 mice (3 per group) were gavaged with 1 μmol TBEs, CDDO or CDDO-Im in DMSO. Six hours later, livers were harvested and homogenized. Lysates were separated by SDS-PAGE, probed with HO-1 antibodies, and developed by ECL.
CD-1 mice (2 per group) were gavaged with TBEs or CDDO-Im in DMSO. After 6 h, livers were harvested and homogenized. Lysates were separated by SDS-PAGE, probed with HO-1 antibodies, and developed by ECL.

heme oxygenase-1 [6] = test: Induction of heme oxygenase-1 in stomach of CD-1 mice after gavage; assay type: in vivo; conditions: FIG. 12; male CD-1 mice, 1 μmol by gavage in DMSO, six hours
Excerpt: FIG. 12. […] Male CD-1 mice (3 per group) were gavaged with 1 μmol TBEs, CDDO or CDDO-Im in DMSO. Six hours later, stomachs were harvested and homogenized. Lysates were separated by SDS-PAGE, probed with HO-1 antibodies, and developed by ECL.

[7] = system: CD11b expression in U937 cells; test: CD11b expression in U937 cells (FACS); assay type: cell-based, human; conditions: FIG. 4; 10-100 nM, 4 days
Experimental: FIG. 4. TBE-31 induces CD11b expression in U937 cells. Cells were incubated with CDDO-Im or TBE-31 (10-100 nM) for 4 days. CD11b expression was measured by FACS analysis. Induction of CD11b is a marker of leukemia cell differentiation.
Cells were incubated with CDDO-Im or TBE-31 (10-100 nM) for 4 days. CD11b expression was measured by FACS analysis. Induction of CD11b is a marker of leukemia cell differentiation.

iNOS = test: Inhibition of iNOS induction in RAW cells stimulated with IFN-γ (Western blot); assay type: cell-based, mouse; conditions: FIG. 5; IFNg 10 ng/ml, 24 hours
Jurkat cells = test: Proliferation of Jurkat cells (Coulter counter); assay type: cell-based; conditions: FIG. 6; 3-4 days
Experimental: FIG. 6. TBEs inhibit proliferation of Jurkat cells. Cells were treated with TBEs and triterpenoids for 3-4 days and counted by Coulter counter. […] Thus, it is to be expected that TBEs may have useful activities in regulation of lymphocyte, as well as macrophage, function.
Cells were treated with TBEs for 3-4 days and counted by Coulter counter.

[8] = system: A549 human lung cancer cells; test: Apoptosis in A549 human lung cancer cells; assay type: cell-based; conditions: FIG. 7; 24 h
Experimental: FIG. 7. TBE-31 induces apoptosis in A549 human lung cancer cells. Cells were treated with TBE-31 for 24 h. A549 is a classic human lung cancer cell line.
Cells were treated for 24 h. A549 is a classic human lung cancer cell line.

U937 cells = test: Apoptosis in U937 cells (Annexin V); assay type: cell-based, human; conditions: FIG. 8, 24 hours
Experimental: FIG. 8. Induction of apoptosis in U937 cells by TBEs. Cells were treated with TBEs and triterpenoids for 24 hours.
Cells were treated for 24 hours.

HO-1 = test: Induction of HO-1 in RAW cells (Western blot); assay type: cell-based, mouse; conditions: FIG. 9; 30-300 nM, 24 hours
[9] = system: aflatoxin-induced tumorigenesis; set-up: species or system F344 rats; conditions: rat, in vivo

## C#CC12C=C(C#N)C(=O)C=C1C1(C)C=C(C#N)C(=O)C(C)(C)C1CC2 (racemic) [TBE-31, 10a-ethynyl-4b,8,8-trimethyl-3,7-dioxo-3,4b,7,8,8a,9,10,10a-octahydrophenanthrene-2,6-dicarbonitrile]
[1]; Mus musculus, Table 5, C-8a functionalized TBE-9 analogs, stimulated with interferon-γ, read-out: IC50 (nM), NO production in RAW cells
  IC50: 1 nM
[1]; RAW cells, interferon-γ
  Potency for inhibition of NO production in RAW cells (in words): extremely potent at one nanomolar concentrations; also recorded: higher than CDDO and equal to TP-225
[2]
  Inhibition of proliferation of RMPI 8226 human myeloma cells: by far the most potent; also recorded: equivalent to that of CDDO itself (TP-151)
[3]
  Inhibition of proliferation of U937 human leukemia cells: by far the most potent; also recorded: more potent than CDDO
Heme oxygenase-1 [4]
  Induction of heme oxygenase-1 in U937 cells: potent inducer of heme oxygenase; also recorded: markedly more potent than TP-151 (CDDO), and almost as potent as TP-235
Heme oxygenase-1 [5]; FIG. 3, CD-1 mice, gavage in DMSO, livers after 6 h
  Induction of heme oxygenase-1 in liver in vivo: orally active agent; also recorded: comparable to that found with CDDO-Imidazolide
Heme oxygenase-1 [5]; FIG. 11, male CD-1 mice, 1 μmol by gavage in DMSO, six hours
  Induction of heme oxygenase-1 in liver: potent inducer of heme oxygenase-1 in liver
Heme oxygenase-1 [6]
  Induction of heme oxygenase-1 in stomach: induces heme oxygenase-1 in stomach
[7]
  Induction of CD11b expression in U937 cells: strongly induces CD11b at 100 nM; also recorded: comparable to that of CDDO-Im at 10 and 30 nM; also recorded: more potent than CDDO-Im at 100 nM
iNOS
  Suppression of induction of iNOS in RAW 264.7 cells: potent suppressor of induction of iNOS; also recorded: significantly more potent than CDDO, and almost as potent as CDDO-Imidazolide
Jurkat cells
  Inhibition of proliferation of Jurkat cells: extremely active, more so than CDDO (TP-151)
[8]
  Induction of apoptosis in A549 cells: can induce both early and late apoptosis
U937 cells
  Induction of apoptosis in U937 cells: most active of the TBEs; also recorded: markedly more active than CDDO (TP-151)
HO-1
  Induction of HO-1 in RAW cells: higher inducer than CDDO-Im
[9]
  Formation of preneoplastic (GST-P positive) foci in liver: reduces the formation of preneoplastic foci
